# Assays:
# Assay in all cases: LC-MS/MS proteome profiling
# [1] = tested on: PLK1; assay type: cell-based, Homo sapiens; parameters: key to Significant (24h SK5527vs24h DMSO) FDR0 05: +: Statistical significance for differential regulation was set to a false discovery rate (FDR) of < 0.05 and |log2FC| = 2
# Experimental: (§1) IMR-32 cells were seeded in T-25 flasks at a density of 1.7 million cells/flask and treated the next day with DMSO (negative control), SK5527 (500 nM) or MK-5108 (500 nM) for 3 or 24 h (data for MK-5108 not discussed in this manuscript). Cell pellets were harvested at the respective time points, lysed, and the concentration of the obtained protein lysates measured as previously described. Details on further sample preparation, LC–MS/MS, and data analysis can be found in the Supporting Information. The LC–MS/MS proteomics data have been deposited to the ProteomeXchange Consortium via the PRIDE partner repository with the data set identifier PXD061539.
# (§2) Supplementary Methods 1 – LC-MS/MS proteomics
# (§3) From each sample, 100 µg of protein was isolated, the volumes were equalized with water and SDS and TEAB were added to a final concentration of 5% and 50 mM, respectively. Proteins were reduced and alkylated by addition of 10 mM Tris(2-carboxyethyl)phosphine hydrochloride and 40 mM chloroacetamide and incubation for 30 minutes at 25°C in the dark. Phosphoric acid was added to a final concentration of 1.2%, and samples were subsequently diluted 7-fold with binding buffer containing 90% methanol in 100 mM TEAB, pH 7.55. The samples were loaded on the 96-well S-Trap™ plate (Protifi), placed on top of a deepwell plate, and centrifuged for 2 min at 1,500 x g at RT. After protein binding, the S-trap™ plate was washed three times by adding 200 µl binding buffer and centrifugation for 2 min at 1,500 x g at RT. A new deepwell receiver plate was placed below the 96-well S-Trap™ plate and 50 mM TEAB containing trypsin (1/100, w/w) was added for digestion overnight at 37°C.
# (§4) Using centrifugation for 2 min at 1,500 x g, peptides were eluted in three steps, first with 80 µl 50 mM TEAB, then with 80 µl 0.2% formic acid (FA) in water and finally with 80 µl 0.2% FA in water/acetonitrile (ACN) (50/50, v/v). Eluted peptides were dried completely by vacuum centrifugation.
# (§5) Peptides were re-dissolved in 20 µl loading solvent A (0.1% trifluoroacetic acid in water/acetonitrile (ACN) (99.5:0.5, v/v)) of which 2 µl of sample was injected for LC-MS/MS analysis on an Ultimate 3000 ProFlow nanoLC system in-line connected to a Orbitrap Exploris 240 mass spectrometer (Thermo) equipped with pneu-Nimbus dual ion source (Phoenix S&T). Trapping was performed at 20 μl/min for 2 min in loading solvent A on a PepMap™ Neo Trap column (Thermo scientific, 300 μm internal diameter (I.D.), 5 μm beads). The peptides were separated on a 250 mm Odyssey Ultimate, 1.7µm C18, 75 µm inner diameter (Ionopticks) kept at a constant temperature of 45°C. Peptides were eluted by a gradient reaching 26,4 % MS solvent B (0.1% FA in acetonitrile) after 80 min, 44% MS solvent B at 95 min, 56% MS solvent B at 100min followed by a 5-minutes wash at 56% MS solvent B and re-equilibration with MS solvent A (0.1% FA in water). The flow rate was set to 250 nl/min. The mass spectrometer was operated in data-independent mode, automatically switching between MS and MS/MS acquisition. Full-scan MS spectra ranging from 375-1500 m/z with a normalized target value of 300%, a maximum fill time of 25 ms and a resolution at of 60,000 were followed by 30 quadrupole isolations with a precursor isolation width of 10 m/z for HCD fragmentation at an NCE of 30% after filling the trap at a normalized target value of 2000% for maximum injection time of 45 ms. MS2 spectra were acquired at a resolution of 15,000 with a scan range of 200-1800 m/z in the Orbitrap analyser without multiplexing. The isolation intervals were set from 400 – 900 m/z with a width of 10 m/z using window placement optimization. The polydimethylcyclosiloxane background ion at 445.120028 Da was used for internal calibration (lock mass) and QCloud has been used to control instrument longitudinal performance during the project.
# (§6) Analysis of the mass spectrometry data was performed in DiaNN (version 1.9). Precursor false discovery rate was […]
# (§7) set at 1%. […]
# [2] = tested on: CKAP2; assay type: cell-based, Homo sapiens; parameters: key to Significant (24h SK5527vs24h DMSO) FDR0 05: +: Statistical significance for differential regulation was set to a false discovery rate (FDR) of < 0.05 and |log2FC| = 2
# Experimental: as §1, §2, §3, §4, §5, §6, §7
# [3] = tested on: ZNF660; assay type: cell-based, Homo sapiens; parameters: key to Significant (24h SK5527vs24h DMSO) FDR0 05: +: Statistical significance for differential regulation was set to a false discovery rate (FDR) of < 0.05 and |log2FC| = 2
# Experimental: as §1, §2, §3, §4, §5, §6, §7
# [4] = target: T1, AURKA (Homo sapiens, UniProt O14965); assay type: cell-based; parameters: endogenous in cells; host or cells: IMR-32; key to Significant (3h SK5527vs3h DMSO) FDR0 05 / Significant (24h SK5527vs24h DMSO) FDR0 05: +: Statistical significance for differential regulation was set to a false discovery rate (FDR) of < 0.05 and |log2FC| = 2
# T1 sequence (O14965 1-403): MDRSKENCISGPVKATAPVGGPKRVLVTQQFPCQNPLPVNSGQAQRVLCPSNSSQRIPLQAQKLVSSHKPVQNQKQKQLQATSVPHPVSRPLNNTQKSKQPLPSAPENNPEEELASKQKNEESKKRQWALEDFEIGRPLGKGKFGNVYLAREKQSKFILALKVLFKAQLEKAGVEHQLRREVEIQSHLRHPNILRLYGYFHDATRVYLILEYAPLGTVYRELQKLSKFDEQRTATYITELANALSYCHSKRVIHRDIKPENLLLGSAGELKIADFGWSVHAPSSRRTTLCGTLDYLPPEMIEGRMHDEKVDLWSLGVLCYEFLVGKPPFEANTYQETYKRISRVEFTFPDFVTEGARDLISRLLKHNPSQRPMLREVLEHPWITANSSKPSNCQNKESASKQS
# Experimental: as §1, §2, §3, §4, §5, §6, §7
structure (smiles),measurement,setting,value
Cc1cc(Nc2ccc(F)c(CC3(C(=O)N4CCC(F)(CN5CCN(c6ccc(N7CCC(=O)NC7=O)cn6)CC5)CC4)CCN(Cc4cccc(Cl)c4F)CC3)n2)n[nH]1 [SK5527],logFC (3h SK5527vs3h DMSO),"[1]; IMR-32, 3h",0.31
same,Significant (24h SK5527vs24h DMSO) FDR0 05,"[1]; IMR-32, 24h",+
same,logFC (24h SK5527vs24h DMSO),"[1]; IMR-32, 24h",2.19
same,logFC PLK1,[1]; SK5527 vs DMSO (24h),2.19
same,logFC (3h SK5527vs3h DMSO),"[2]; IMR-32, 3h",0.32
same,Significant (24h SK5527vs24h DMSO) FDR0 05,"[2]; IMR-32, 24h",+
same,logFC (24h SK5527vs24h DMSO),"[2]; IMR-32, 24h",2.1
same,logFC CKAP2,[2]; SK5527 vs DMSO (24h),2.1
same,logFC (3h SK5527vs3h DMSO),"[3]; IMR-32, 3h",-0.15
same,Significant (24h SK5527vs24h DMSO) FDR0 05,"[3]; IMR-32, 24h",+
same,logFC (24h SK5527vs24h DMSO),"[3]; IMR-32, 24h",-2.02
same,logFC ZNF660,[3]; SK5527 vs DMSO (24h),-2.02
same,Significant (3h SK5527vs3h DMSO) FDR0 05,"[4]; IMR-32, 3h",+
same,logFC (3h SK5527vs3h DMSO),"[4]; IMR-32, 3h",-3.27
same,Significant (24h SK5527vs24h DMSO) FDR0 05,"[4]; IMR-32, 24h",+
same,logFC (24h SK5527vs24h DMSO),"[4]; IMR-32, 24h",-3.1
same,logFC AURKA,[4]; SK5527 vs DMSO (3h),-3.27
same,logFC AURKA,[4]; SK5527 vs DMSO (24h),-3.1
